From patent publication US11505543B2, “4-oxo-3,4-dihydroquinazoline compounds as inhibitors of human immunodeficiency virus replication” (VIIV HEALTHCARE UK (NO.5) LIMITED, priority 2018, dated 2022)

How the values were obtained:
[1] = Compound cytotoxicity, XTT-based colorimetric assay; format: cell-based; conditions: human, uninfected MT2 cells, day 4, XTT
Method in brief: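 Run under the antiviral-assay protocol but without virus. Viability was read on day 4 and CC50 values were derived from the readout.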

[2] = tested on: recombinant NL4-3 virus (nef section replaced with Renilla luciferase gene) in MT-2 cells; test: HIV cell culture assay (antiviral activity, luciferase readout); format: cell-based; conditions: serial dilutions of compound
Method in brief: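 EC50 was derived by median-effect curve fitting of luciferase activity. The signal comes from MT-2 cells infected for 4–5 days with 293T-produced NL4-3 reporter virus, nef partly replaced by Renilla luciferase, in the presence of serially diluted compound.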

[3] = Renilla, NL43, MT-2 cells infected for 4-5 days with recombinant NL4-3 Renilla luciferase virus
[4] = MT-2 cells infected for 4-5 days with recombinant NL4-3 Renilla luciferase virus

Cc1cc(C)nc(-c2ccc3c(=O)n(-c4ccc(Cl)c5c(NS(C)(=O)=O)nn(CC(F)F)c45)c([C@H](Cc4cc(F)cc(F)c4)NC(=O)Cn4nc(C(F)F)c5c4C(F)(F)[C@@H]4C[C@H]54)nc3c2)n1 (atropisomer, axis not shown; (aR)) [Example 128, N-((S)-1-(3-(4-chloro-1-(2,2-difluoroethyl)-3-(methylsulfonamido)-1H-indazol-7-yl)-7-(4,6-dimethylpyrimidin-2-yl)-4-oxo-3,4-dihydroquinazolin-2-yl)-2-(3,5-difluorophenyl)ethyl)-2-((3bS,4aR)-3-(difluoromethyl)-5,5-difluoro-3b,4,4a,5-tetrahydro-1H-cyclopropa[3,4]cyclopenta[1,2-c]pyrazol-1-yl)acetamide]
CC50 at 4 day [1]: > 500 nM
EC50 [2, 3]: 0.069 nM

Cc1cc(C)nc(-c2ccc3c(=O)n(-c4ccc(Cl)c5c(NS(=O)(=O)C6CC6)nn(CC(F)F)c45)c([C@H](Cc4cc(F)cc(F)c4)NC(=O)Cn4nc(C(F)F)c5c4C(F)(F)[C@@H]4C[C@H]54)nc3c2)n1 (atropisomer, axis not shown; (aR)) [Example 129, N-((S)-1-(3-(4-chloro-3-(cyclopropanesulfonamido)-1-(2,2-difluoroethyl)-1H-indazol-7-yl)-7-(4,6-dimethylpyrimidin-2-yl)-4-oxo-3,4-dihydroquinazolin-2-yl)-2-(3,5-difluorophenyl)ethyl)-2-((3bS,4aR)-3-(difluoromethyl)-5,5-difluoro-3b,4,4a,5-tetrahydro-1H-cyclopropa[3,4]cyclopenta[1,2-c]pyrazol-1-yl)acetamide]
CC50 at 4 day [1]: > 500 nM
EC50 [2, 3]: 0.095 nM

Cc1ncc(-c2ccc3c(=O)n(-c4ccc(Cl)c5c(NS(C)(=O)=O)nn(C)c45)c([C@H](Cc4cc(F)cc(F)c4)NC(=O)Cn4nc(C(F)F)c5c4C(F)(F)[C@@H]4C[C@H]54)nc3c2)cn1 (atropisomer, axis not shown; (aR)) [Example 130, N-((S)-1-(3-(4-chloro-1-methyl-3-(methylsulfonamido)-1H-indazol-7-yl)-7-(2-methylpyrimidin-5-yl)-4-oxo-3,4-dihydroquinazolin-2-yl)-2-(3,5-difluorophenyl)ethyl)-2-((3bS,4aR)-3-(difluoromethyl)-5,5-difluoro-3b,4,4a,5-tetrahydro-1H-cyclopropa[3,4]cyclopenta[1,2-c]pyrazol-1-yl)acetamide]
CC50 at 4 day [1]: > 500 nM
EC50 [2, 3]: 0.03 nM

COc1cc(C)nc(-c2ccc3c(=O)n(-c4ccc(Cl)c5c(NS(C)(=O)=O)nn(C)c45)c([C@H](Cc4cc(F)cc(F)c4)NC(=O)Cn4nc(C(F)F)c5c4C(F)(F)[C@@H]4C[C@H]54)nc3c2)n1 (atropisomer, axis not shown; (aR)) [Example 131, N-((S)-1-(3-(4-chloro-1-methyl-3-(methylsulfonamido)-1H-indazol-7-yl)-7-(4-methoxy-6-methylpyrimidin-2-yl)-4-oxo-3,4-dihydroquinazolin-2-yl)-2-(3,5-difluorophenyl)ethyl)-2-((3bS,4aR)-3-(difluoromethyl)-5,5-difluoro-3b,4,4a,5-tetrahydro-1H-cyclopropa[3,4]cyclopenta[1,2-c]pyrazol-1-yl)acetamide]
CC50 at 4 day [1]: > 500 nM
EC50 [2, 3]: 0.11 nM

Cn1nc(NS(C)(=O)=O)c2c(Cl)ccc(-n3c(C(Cc4cc(F)cc(F)c4)NC(=O)Cn4nc(C(F)F)c5c4C(F)(F)[C@@H]4C[C@H]54)nc4cc(-c5ccccc5F)ccc4c3=O)c21 (single isomer, unassigned) [Example 1]
CC50 at 4 day [1]: > 1000 nM
EC50 [2, 3]: 209 nM

Cn1nc(NS(C)(=O)=O)c2c(Cl)ccc(-n3c([C@H](Cc4cc(F)cc(F)c4)NC(=O)Cn4nc(C(F)F)c5c4C(F)(F)[C@@H]4C[C@H]54)nc4cc(-c5ccccc5F)ccc4c3=O)c21 (single isomer, unassigned) [Example 2]
CC50 at 4 day [1]: > 1000 nM
EC50 [2, 3]: 0.53 nM

Cn1nc(NS(C)(=O)=O)c2c(Cl)ccc(-n3c([C@H](Cc4cc(F)cc(F)c4)NC(=O)Cn4ccc(C5CC5)n4)nc4cc(-c5ccccc5F)ccc4c3=O)c21 (single isomer, unassigned) [Example 3]
CC50 at 4 day [1]: > 1000 nM
EC50 [2, 4]: 63.1 nM

CC(C(=O)N[C@@H](Cc1cc(F)cc(F)c1)c1nc2cc(-c3ccccc3F)ccc2c(=O)n1-c1ccc(Cl)c2c(NS(=O)(=O)C3CC3)nn(CC(F)F)c12)n1ccc(C2CC2)n1 (single isomer, unassigned) [Example 133]
CC50 at 4 day [1]: > 500 nM
EC50 [2, 4]: 1.6 nM

Cc1c(-c2ccc3c(=O)n(-c4ccc(Cl)c5c(NS(C)(=O)=O)nn(C)c45)c([C@H](Cc4cc(F)cc(F)c4)NC(=O)Cn4nc(C(F)F)c5c4C(F)(F)[C@@H]4CC54)nc3c2)cc(F)c2c1CCCO2 (stereo in doubt) [Example 53, N-((S)-1-(3-(4-chloro-1-methyl-3-(methylsulfonamido)-1H-indazol-7-yl)-7-(8-fluoro-5-methylchroman-6-yl)-4-oxo-3,4-dihydroquinazolin-2-yl)-2-(3,5-difluorophenyl)ethyl)-2-((3bS,4aR)-3-(difluoromethyl)-5,5-difluoro-3b,4,4a,5-tetrahydro-1H-cyclopropa[3,4]cyclopenta[1,2-c]pyrazol-1-yl)acetamide]
CC50 at 4 day [1]: > 1000 nM
EC50 [2, 3]: 2.1 nM

CC(C)c1ccc(-n2c([C@H](Cc3cc(F)cc(F)c3)NC(=O)Cn3nc(C(F)F)c4c3C(F)(F)[C@@H]3C[C@H]43)nc3cc(-c4nnn[nH]4)ccc3c2=O)cn1 [Example 7, 2-((3bS,4aR)-3-(difluoromethyl)-5,5-difluoro-3b,4,4a,5-tetrahydro-1H-cyclopropa[3,4]cyclopenta[1,2-c]pyrazol-1-yl)-N-((S)-2-(3,5-difluorophenyl)-1-(3-(6-isopropylpyridin-3-yl)-4-oxo-7-(1H-tetrazol-5-yl)-3,4-dihydroquinazolin-2-yl)ethyl)acetamide]
CC50 at 4 day [1]: > 1000 nM
EC50 [2, 3]: 4130 nM

O=C(Cn1ccc(C2CC2)n1)N[C@@H](Cc1cc(F)cc(F)c1)c1nc2cc(-c3ccc(F)cc3F)ccc2c(=O)n1-c1ccc(S(=O)(=O)N2CCOCC2)cc1 [Example 12, (S)-2-(3-cyclopropyl-1H-pyrazol-1-yl)-N-(2-(3,5-difluorophenyl)-1-(7-(2,4-difluorophenyl)-3-(4-(morpholinosulfonyl)phenyl)-4-oxo-3,4-dihydroquinazolin-2-yl)ethyl)acetamide]
CC50 at 4 day [1]: > 1000 nM
EC50 [2, 3]: 8.3 nM

Cc1cc(Cl)ccc1-c1ccc2c(=O)n(-c3ccc(S(=O)(=O)N4CCOCC4)cc3)c([C@H](Cc3cc(F)cc(F)c3)NC(=O)Cn3nc(C(F)F)c4c3C(F)(F)[C@@H]3C[C@H]43)nc2c1 [Example 15, N-((S)-1-(7-(4-chloro-2-methylphenyl)-3-(4-(morpholinosulfonyl)phenyl)-4-oxo-3,4-dihydroquinazolin-2-yl)-2-(3,5-difluorophenyl)ethyl)-2-((3bS,4aR)-3-(difluoromethyl)-5,5-difluoro-3b,4,4a,5-tetrahydro-1H-cyclopropa[3,4]cyclopenta[1,2-c]pyrazol-1-yl)acetamide]
CC50 at 4 day [1]: > 1000 nM
EC50 [2, 3]: 43 nM

O=C(Cn1ccc(C2CC2)n1)N[C@@H](Cc1cc(F)cc(F)c1)c1nc2cc(-c3cc(F)ccc3F)ccc2c(=O)n1-c1ccc(S(=O)(=O)N2CCOCC2)cc1 [Example 19, (S)-2-(3-cyclopropyl-1H-pyrazol-1-yl)-N-(2-(3,5-difluorophenyl)-1-(7-(2,5-difluorophenyl)-3-(4-(morpholinosulfonyl)phenyl)-4-oxo-3,4-dihydroquinazolin-2-yl)ethyl)acetamide]
CC50 at 4 day [1]: > 1000 nM
EC50 [2, 3]: 8.9 nM

O=C(Cn1ccc(C2CC2)n1)N[C@@H](Cc1cc(F)cc(F)c1)c1nc2cc(-c3cccnc3)ccc2c(=O)n1-c1ccc(S(=O)(=O)N2CCOCC2)cc1 [Example 20, (S)-2-(3-cyclopropyl-1H-pyrazol-1-yl)-N-(2-(3,5-difluorophenyl)-1-(3-(4-(morpholinosulfonyl)phenyl)-4-oxo-7-(pyridin-3-yl)-3,4-dihydroquinazolin-2-yl)ethyl)acetamide]
CC50 at 4 day [1]: > 1000 nM
EC50 [2, 3]: 3.7 nM

O=C(Cn1nc(C(F)F)c2c1C(F)(F)[C@@H]1C[C@H]21)N[C@@H](Cc1cc(F)cc(F)c1)c1nc2cc(-c3ccc(F)cc3F)ccc2c(=O)n1-c1ccc(S(=O)(=O)N2CCOCC2)cc1 [Example 22, 2-((3bS,4aR)-3-(difluoromethyl)-5,5-difluoro-3b,4,4a,5-tetrahydro-1H-cyclopropa[3,4]cyclopenta[1,2-c]pyrazol-1-yl)-N-((S)-2-(3,5-difluorophenyl)-1-(7-(2,4-difluorophenyl)-3-(4-(morpholinosulfonyl)phenyl)-4-oxo-3,4-dihydroquinazolin-2-yl)ethyl)acetamide]
CC50 at 4 day [1]: > 1000 nM
EC50 [2, 3]: 7.9 nM

O=C(Cn1nc(C(F)F)c2c1C(F)(F)[C@@H]1C[C@H]21)N[C@@H](Cc1cc(F)cc(F)c1)c1nc2cc(-c3cccnc3)ccc2c(=O)n1-c1ccc(S(=O)(=O)N2CCOCC2)cc1 [Example 24, 2-((3bS,4aR)-3-(difluoromethyl)-5,5-difluoro-3b,4,4a,5-tetrahydro-1H-cyclopropa[3,4]cyclopenta[1,2-c]pyrazol-1-yl)-N-((S)-2-(3,5-difluorophenyl)-1-(3-(4-(morpholinosulfonyl)phenyl)-4-oxo-7-(pyridin-3-yl)-3,4-dihydroquinazolin-2-yl)ethyl)acetamide]
CC50 at 4 day [1]: > 1000 nM
EC50 [2, 3]: 4.3 nM

O=C(Cn1nc(C(F)F)c2c1C(F)(F)[C@H]1C[C@@H]21)N[C@@H](Cc1cc(F)cc(F)c1)c1nc2cc(-c3ncccn3)ccc2c(=O)n1-c1ccc(S(=O)(=O)N2CCOCC2)cc1 [Example 27, 2-((3bR,4aS)-3-(difluoromethyl)-5,5-difluoro-3b,4,4a,5-tetrahydro-1H-cyclopropa[3,4]cyclopenta[1,2-c]pyrazol-1-yl)-N-((S)-2-(3,5-difluorophenyl)-1-(3-(4-(morpholinosulfonyl)phenyl)-4-oxo-7-(pyrimidin-2-yl)-3,4-dihydroquinazolin-2-yl)ethyl)acetamide]
CC50 at 4 day [1]: > 1000 nM
EC50 [2, 3]: 5.8 nM
